# Reference: ChEMBL document CHEMBL1221184, “Identifying off-target effects and hidden phenotypes of drugs in human cells” (Nat Chem Biol, 2006)
# Active and inactive are the calls of the source. The calls are words filed in the database; no cut-off is given here. Residues, ends and D or L forms follow the SMILES beside them. *: point of attachment. Cbz = O=C(OCc1ccccc1)*
# Assays:
# PC-3 [1] = experiment: Antiproliferative activity against human PC3 cells at 12.5 uM after 120 hrs by MTT assay relative to DMSO; format: functional
# PC-3 [2] = experiment: Antiproliferative activity against human PC3 cells at 100 nM after 120 hrs by MTT assay relative to DMSO; format: functional
# PC-3 [3] = experiment: Antiproliferative activity against human PC3 cells at 10 ng/ml after 120 hrs by MTT assay relative to DMSO; format: functional
# PC-3 [4] = experiment: Antiproliferative activity against human PC3 cells at 1.5 uM after 120 hrs by MTT assay relative to DMSO; format: functional
# PC-3 [5] = experiment: Antiproliferative activity against human PC3 cells at 1 uM after 120 hrs by MTT assay relative to DMSO; format: functional
# HEK293 [6] = experiment: Inhibition of proteasome expressed in HEK293 cells assessed as effect on CyclinD1-CDK4 interaction complexes by EYFP and/or YFP Venus fragment based reporter gene assay
# HEK293 [7] = experiment: Inhibition of proteasome expressed in HEK293 cells assessed as effect on E6:E6AP interaction complexes by EYFP and/or YFP Venus fragment based reporter gene assay
# HEK293 [8] = experiment: Inhibition of proteasome expressed in HEK293 cells assessed as effect on Pin1-Jun interaction complexes by EYFP and/or YFP Venus fragment based reporter gene assay
# HEK293 [9] = experiment: Inhibition of proteasome expressed in HEK293 cells assessed as effect on p53-Chk1 interaction complexes by EYFP and/or YFP Venus fragment based reporter gene assay
# HEK293 [10] = experiment: Inhibition of proteasome expressed in HEK293 cells assessed as effect on p53-p53 interaction complexes by EYFP and/or YFP Venus fragment based reporter gene assay
# Cofilin-1 (Homo sapiens) [11] = molecular target: Cofilin-1 (Homo sapiens) (UniProt P23528); experiment: Effect on cofilin1 expressed in HEK293 cells assessed as effect on cofilin1; Limk2 interaction complexes by EYFP and/or YFP Venus fragment based reporter gene assay; format: cell-based
# PC-3 [12] = experiment: Antiproliferative activity against human PC3 cells at 200 nM after 120 hrs by MTT assay relative to DMSO; format: functional
# PC-3 [13] = experiment: Antiproliferative activity against human PC3 cells after 120 hrs by MTT assay; format: functional, cell-based; settings: PC-3, 120 h
# A549 = experiment: Antiproliferative activity against human A549 cells after 120 hrs by MTT assay; format: functional, cell-based; settings: A549, 120 h
# MIA PaCa-2 = experiment: Antiproliferative activity against human MIAPaCa2cells after 120 hrs by MTT assay; format: functional, cell-based; settings: MIA PaCa-2, 120 h
# LoVo = experiment: Antiproliferative activity against human LoVo cells after 120 hrs by MTT assay; format: functional, cell-based
# [14] = Antiproliferative activity against human U87MG cells after 120 hrs by MTT assay; format: functional, cell-based, U-87MG ATCC; settings: U-87 MG
# PC-3 [15] = experiment: Antiproliferative activity against human PC3 cells at 2.5 uM after 120 hrs by MTT assay relative to DMSO; format: functional
# PC-3 [16] = experiment: Antiproliferative activity against human PC3 cells at 15 uM after 120 hrs by MTT assay relative to DMSO; format: functional
# PC-3 [17] = experiment: Antiproliferative activity against human PC3 cells at 300 nM after 120 hrs by MTT assay relative to DMSO; format: functional
# [18] = molecular target: Cyclin-dependent kinase 1 (Homo sapiens) (UniProt P06493); experiment: Effect on Cdc2 expressed in HEK293 cells assessed as effect on Cdc2:Cdc25C interaction complexes in presence of camptothecin by EYFP and/or YFP Venus fragment based reporter gene assay; format: cell-based
# [19] = molecular target: Cyclin-dependent kinase 1 (Homo sapiens) (UniProt P06493); experiment: Effect on Cdc2 expressed in HEK293 cells assessed as effect on Cdc2:Cdc25A interaction complexes in presence of camptothecin by EYFP and/or YFP Venus fragment based reporter gene assay; format: cell-based
# [20] = molecular target: Transcription factor Jun (Homo sapiens) (UniProt P05412); experiment: Inhibition of c-Jun expressed in HEK293 cells assessed as induction of protein interaction in presence of camptothecin with Pin1 by EYFP based reporter gene assay; format: cell-based
# Cofilin-1 (Homo sapiens) [21] = molecular target: Cofilin-1 (Homo sapiens) (UniProt P23528); experiment: Effect on cofilin1 expressed in HEK293 cells assessed as effect on cofilin1; Limk2 interaction complexes in presence of camptothecin by EYFP and/or YFP Venus fragment based reporter gene assay; format: cell-based
# PC-3 [22] = experiment: Antiproliferative activity against human PC3 cells at 250 nM after 120 hrs by MTT assay relative to DMSO; format: functional
# PC-3 [23] = experiment: Antiproliferative activity against human PC3 cells at 10 uM after 120 hrs by MTT assay relative to DMSO; format: functional
# Cofilin-1 (Homo sapiens) [24] = molecular target: Cofilin-1 (Homo sapiens) (UniProt P23528); experiment: Inhibition of cofilin1 expressed in HEK293 cells assessed as effect on cofilin1; Limk2 interaction complexes by EYFP and/or YFP Venus fragment based reporter gene assay; format: cell-based
# Chain of Cyclin-dependent kinase 1 (Homo sapiens) (P06493 whole entry, looked up, the tested form may be a part): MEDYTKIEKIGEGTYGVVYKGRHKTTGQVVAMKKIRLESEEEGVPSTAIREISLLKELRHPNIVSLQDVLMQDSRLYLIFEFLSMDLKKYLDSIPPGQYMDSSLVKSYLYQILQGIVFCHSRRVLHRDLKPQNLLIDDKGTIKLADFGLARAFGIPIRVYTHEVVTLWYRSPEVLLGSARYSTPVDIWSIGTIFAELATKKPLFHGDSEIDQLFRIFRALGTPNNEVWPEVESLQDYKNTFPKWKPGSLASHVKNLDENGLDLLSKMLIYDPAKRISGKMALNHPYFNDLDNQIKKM
# Chain of Cofilin-1 (Homo sapiens) (P23528 whole entry, the tested form may be a part): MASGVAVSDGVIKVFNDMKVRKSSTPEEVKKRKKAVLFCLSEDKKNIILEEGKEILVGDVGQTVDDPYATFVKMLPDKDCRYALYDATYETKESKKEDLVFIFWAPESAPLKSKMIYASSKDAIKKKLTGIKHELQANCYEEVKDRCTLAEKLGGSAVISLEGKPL
# Chain of Transcription factor Jun (Homo sapiens) (P05412 whole entry, the tested form may be a part): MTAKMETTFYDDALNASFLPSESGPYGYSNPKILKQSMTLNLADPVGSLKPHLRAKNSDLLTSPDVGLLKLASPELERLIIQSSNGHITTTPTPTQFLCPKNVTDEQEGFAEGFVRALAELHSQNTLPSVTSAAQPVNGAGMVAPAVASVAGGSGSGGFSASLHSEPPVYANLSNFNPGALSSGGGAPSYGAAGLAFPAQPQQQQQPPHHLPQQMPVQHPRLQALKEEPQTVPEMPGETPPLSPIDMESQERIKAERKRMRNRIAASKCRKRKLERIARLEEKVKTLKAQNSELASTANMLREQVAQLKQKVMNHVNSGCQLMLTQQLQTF
smiles,measurement,setting,value
O=c1c(-c2ccc(O)cc2)coc2cc(O)cc(O)c12 [GENISTEIN],fold change (FC),PC-3 [1],1.074
Cn1c2ccccc2c2c3c(c4c5ccccc5n(CCC#N)c4c21)CNC3=O [GO-6976],fold change (FC),PC-3 [2],1.119
CCC(=C/[C@H](C)C/C=C/C(C)=C/[C@@H](C)C(=O)[C@@H](C)[C@H](O)[C@@H](C)C/C(C)=C/C(=O)O)/C=C/[C@@H]1OC(=O)C=C[C@@H]1C [LEPTOMYCIN B],fold change (FC),PC-3 [3],0.262
N#Cc1ccc(C(c2ccc(C#N)cc2)n2cncn2)cc1 [LETROZOLE],fold change (FC),PC-3 [4],1.001
CC(C)C[C@@H](C=O)NC(=O)[C@H](CC(C)C)NC(=O)[C@H](CC(C)C)NC(=O)OCc1ccccc1 [MG-132] (Cbz-Leu-Leu-Leu-aldehyde),fold change (FC),PC-3 [5],0.255
same,inhibition,HEK293 [6],Active
same,inhibition,HEK293 [7],Active
same,inhibition,HEK293 [8],Active
same,inhibition,HEK293 [9],Active
same,inhibition,HEK293 [10],Active
same,Activity,Cofilin-1 (Homo sapiens) [11],Active
Cc1[nH]c(=O)c(C#N)cc1-c1ccncc1 [MILRINONE],fold change (FC),PC-3 [12],1.015
O=C(Nc1ccc([N+](=O)[O-])cc1Cl)c1cc(Cl)ccc1O [NICLOSAMIDE],IC50,PC-3 [13],400 nM
same,IC50,A549,400 nM
same,IC50,MIA PaCa-2,1100 nM
same,IC50,LoVo,700 nM
same,IC50,[14],400 nM
same,fold change (FC),PC-3 [5],0.408
CC(=O)O[C@H]1C(=O)[C@@]2(C)[C@H]([C@H](OC(=O)c3ccccc3)[C@]3(O)C[C@H](OC(=O)[C@H](O)[C@@H](NC(=O)c4ccccc4)c4ccccc4)C(C)=C1C3(C)C)[C@]1(OC(C)=O)CO[C@@H]1C[C@@H]2O [PACLITAXEL],fold change (FC),PC-3 [15],0.281
CN(CCOc1ccc(CC2SC(=O)NC2=O)cc1)c1ccccn1 (centres undefined) [ROSIGLITAZONE],fold change (FC),PC-3 [16],0.925
C=C(C)[C@H]1Cc2c(ccc3c2O[C@@H]2COc4cc(OC)c(OC)cc4[C@@H]2C3=O)O1 [ROTENONE],fold change (FC),PC-3 [17],0.548
same,Activity,[18],Active
same,Activity,[19],Active
same,Activity,[20],Active
same,Activity,Cofilin-1 (Homo sapiens) [21],Active
COc1ccc(-n2nc(C(F)(F)F)cc2-c2ccc(Cl)cc2)cc1 [SC-560],fold change (FC),PC-3 [22],1.036
CN[C@H]1CC[C@@H](c2ccc(Cl)c(Cl)c2)c2ccccc21 [SERTRALINE],fold change (FC),PC-3 [23],0.226
same,Activity,[18],Active
same,Activity,[19],Active
same,Activity,[20],Active
same,Activity,Cofilin-1 (Homo sapiens) [21],Active
same,inhibition,Cofilin-1 (Homo sapiens) [24],Active
CO[C@H]1C[C@@H]2CC[C@@H](C)[C@@](O)(O2)C(=O)C(=O)N2CCCC[C@H]2C(=O)O[C@H]([C@H](C)C[C@@H]2CC[C@@H](O)[C@H](OC)C2)CC(=O)[C@H](C)/C=C(\C)[C@@H](O)[C@@H](OC)C(=O)[C@H](C)C[C@H](C)/C=C/C=C/C=C/1C [SIROLIMUS],fold change (FC),PC-3 [22],0.401
O=C1CCC(N2C(=O)c3ccccc3C2=O)C(=O)N1 (centres undefined) [THALIDOMIDE],fold change (FC),PC-3 [22],0.992
